A short description of series [1]: Substance solubility in phosphate buffer. The format is physicochemical. As to conditions: aqueous buffer, thermodynamic from solid; phosphate buffer pH 7.4, dry compound in solid state. As for the experimental part:
(§1) • Human A2a and A2b receptor pharmacology: Chinese hamster ovary CHO-K1 cells stably expressing human A2a and A2b receptors were used to determine substances agonistic potency and intrinsic activity. […] The signal corresponding to adenosine at 100 μmol/L was used to define 100% intrinsic activity. • Human A3 receptor pharmacology: A3 receptor Gi coupling was measured by GTPγ ^35[S] filter assay at serial dilutions of compound using membranes from Perkin-Elmer. The signal corresponding to the maximal response of NECA at 100 μmol/L was set to 100% intrinsic activity. • Lipopolysaccharide (LPS)-induced TNFα production in primary human peripheral blood mononuclear cells (hTNFα PBMC) and rat mononuclears (rTNFα splenocytes): Human PBMC and rat mononuclear spleen cells were incubated with serial dilutions of compound and stimulated with LPS.
Solubility was measured in phosphate buffer at pH 7.4 using dry compounds in solid state.

The target in a further series is A2a (Homo sapiens, UniProt P29274). Description: Human A2a receptor pharmacology: cAMP Alphascreen in CHO-K1 cells. The class given is cell-based. Set-up: expressed in transfected cells; host or cells: CHO-K1. How it is done:
as §1
(§2) Chinese hamster ovary CHO-K1 cells stably expressing human A2a and A2b receptors were stored as 1ml aliquots at -150 °C in freezing medium, thawed immediately prior to assay. […] Cells (10000 cells/well) were incubated with test compounds prepared as serial dilutions. Potency (EC50) and efficacy (% of maximal response) were calculated from data fitted to a 4-parameter logistic function. The signal of 10µM NECA represented the maximal cAMP response (i.e. 100% of efficacy) produced by these cells.
(In general: Alpha assays give light when donor and acceptor beads are brought close together.)

A further series has as its target T1, human A2b receptors (Homo sapiens, UniProt P29275).
T1 construct: expressed in transfected cells; host or cells: CHO-K1
T1 sequence (P29275 1-332): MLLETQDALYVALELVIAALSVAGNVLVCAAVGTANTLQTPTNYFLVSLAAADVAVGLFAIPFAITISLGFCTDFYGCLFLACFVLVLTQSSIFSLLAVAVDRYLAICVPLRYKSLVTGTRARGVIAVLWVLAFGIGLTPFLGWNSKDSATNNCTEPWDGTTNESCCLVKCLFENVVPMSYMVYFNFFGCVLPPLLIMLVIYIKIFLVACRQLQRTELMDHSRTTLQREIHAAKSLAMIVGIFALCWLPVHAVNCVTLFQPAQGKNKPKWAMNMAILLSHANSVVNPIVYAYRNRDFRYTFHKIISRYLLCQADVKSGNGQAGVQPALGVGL
Description: Human A2b receptor pharmacology: cAMP Alphascreen in CHO-K1 cells. Conditions: average (SD). The format is cell-based. As for the experimental part: as §1, §2

The nature of series [2]: In vivo pharmacokinetics in rats (i.v., oral, intratracheal). How it is done:
Rat PK was determined after an i.v. dose of 0.1μmol/kg (approximately 50μg/kg, 1ml/kg, TEG:H2O 50:50) given via a catheter in vena jugularis. The PK after oral administration was performed at a dose of 6μmol/kg (approximately 3mg/kg, 4ml/kg, 0.5% HPMC) given by gavage. Intratracheal PK was determined at 0.03 to 0.6μmol/kg (17 to 300μg/kg, 1ml/kg, in a vehicle containing sodium chloride (8.5mg/ml), EDTA (0.1mg/ml), citric acid (0.15mg/ml), sodium citrate (0.5mg/ml) and polysorbate 80 (0.2mg/mL) in purified water). The i.t. dose was given to anaesthetized (isofluran) rats, positioned at approximately 30° angle (head up) and the compound was administered in the trachea using a modified metal cannula. Rats were put back in their cages while regaining consciousness. Serial blood sampling of 100 to 200µl was performed after i.v. and p.o. dosing at pre-defined timepoints. Blood was mixed 1:4 with purified water containing heparin (10 to 30U/ml) in order to haemolyse the blood cells, and then placed in a 96-well plate and stored at –70°C until analysed. The dilution factor was accounted for in the data analysis. After i.t. dosing, animals were euthanized with isoflurane or pentobarbital at defined timepoints after dosing, blood samples taken from the vena jugularis or arteria carotis, handled and stored as described above. The rats were bled to drain as much blood as possible from the lungs. The lungs including the trachea were carefully dissected out with all non-relevant tissue removed, placed in pre-weighed vials and weighed. The lung vials were stored at –70°C until analyzed.
Lung tissue was frozen in liquid nitrogen and homogenised using a CryoPrep pneumatic hammer. The homogenisation of the tissue and the extraction of the compound were done in 4ml Ringer solution with an Adaptive Focused Acoustic Instrument. 50µl of the supernatant was transferred to a 96-well plate. All lung, blood and plasma samples were analysed by LC-MS/MS using a selective and sensitive method. Peak areas were used in comparison to those produced by the standard curve to determine parent compound concentrations. Homogenate concentrations were adjusted to account for the sample dilutions to give tissue concentrations.

The target in another series is T2, adenosine A1 receptor (Homo sapiens, UniProt P30542).
T2 construct: purchased Perkin Elmer ES-010-M400UA
T2 sequence (P30542 1-326): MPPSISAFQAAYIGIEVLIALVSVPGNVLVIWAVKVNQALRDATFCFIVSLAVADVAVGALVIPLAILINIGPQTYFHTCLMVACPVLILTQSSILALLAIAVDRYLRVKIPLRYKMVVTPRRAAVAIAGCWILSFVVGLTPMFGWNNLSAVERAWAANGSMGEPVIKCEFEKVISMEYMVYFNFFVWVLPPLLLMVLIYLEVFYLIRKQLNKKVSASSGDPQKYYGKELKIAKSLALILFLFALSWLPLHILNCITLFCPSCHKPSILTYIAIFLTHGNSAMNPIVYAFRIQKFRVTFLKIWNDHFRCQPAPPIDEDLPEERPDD
Description: Human A1 receptor pharmacology: GTPγ35[S] assay on membranes. The class given is biochemical. Conditions: average (SD). As for the experimental part:
as §1
The A1 receptor Gi coupling was measured by a scintillation proximity (SPA) GTPγ ^35[S] assay. Membranes (12.5μg/ml final concentration) were incubated with substances in serial dilutions (50mM Hepes, pH 7.4, 1mM MgCl2, 100mM NaCl, 0.01% BSA, 50μg/ml saponin and 2.5μM GDP) including 1mg/ml Scintillation Beads (Wheat Germ Agglutinin PVT SPA, Perkin Elmer - Rpnq0001), 0.3nM of GTPγ ^35[S] (Perkin Elmer - NEG030H) and counts were read after 16h incubation at 4 °C. The signal corresponding to adenosine at 100μM was used to define 100% efficacy.

SMILES strings stand for the structures. Where only a bound is given, the exact number is not on record here.

Chain of A2a (P29274 whole entry): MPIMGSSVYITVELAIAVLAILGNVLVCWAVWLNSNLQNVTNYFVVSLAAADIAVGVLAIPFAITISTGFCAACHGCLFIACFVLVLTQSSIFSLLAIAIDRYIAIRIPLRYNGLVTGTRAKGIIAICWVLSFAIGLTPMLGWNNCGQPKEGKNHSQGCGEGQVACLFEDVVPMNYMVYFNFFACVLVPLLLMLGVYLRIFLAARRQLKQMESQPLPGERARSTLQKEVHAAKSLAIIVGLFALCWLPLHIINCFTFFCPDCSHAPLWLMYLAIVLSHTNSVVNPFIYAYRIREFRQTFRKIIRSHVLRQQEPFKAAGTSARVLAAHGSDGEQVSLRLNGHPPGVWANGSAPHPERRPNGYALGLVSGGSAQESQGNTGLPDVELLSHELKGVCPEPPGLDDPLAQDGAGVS

`CCNC(=O)[C@H]1O[C@@H](n2cnc3c(NC(CC)CC)nc(NCCNC(=O)Nc4cc[n+](C)cc4)nc32)[C@H](O)[C@@H]1O` [Compound 2, (2S,3S,4R,5R)-N-ethyl-5-[6-(1-ethylpropylamino)-2-[2-[(1-methylpyridin-1-ium-4-yl)carbamoylamino]ethylamino]purin-9-yl]-3,4-dihydroxy-tetrahydrofuran-2-carboxamide]: the solubility (as a rule, the dissolved amount per volume that the medium holds) in series [1] is greater than 1000 µM. Further, at A2a (CHO-K1, 100% = 10 μmol/L NECA, average (SD), read-out: A2a human CHO-K1 cells Intrinsic activity), the Emax amounted to 97.9%. Further, the EC50 – broadly, the concentration giving half of the maximal effect – at A2a (cAMP generation, average (SD)) was found to be 1.4 nM; on human A2b receptors, 3600 nM; on adenosine A1 receptor, 2100 nM. Further, the “Selectivity for A2a over A1, A2b and A3” value on A2a (human adenosine receptors) is greater than 1000 fold. In addition, the “Increase of rat lung t½ in comparison with UK-432,097” value in series [2] (i.t.) is 13 fold. Further, the Rat blood clearance in series [2] (i.v., mean of n = 3) amounted to 19 mL/min per kg. In addition, in series [2] (lung, inhaled or intranasal, rat, intratracheal dosing, n = 2/time point, read-out: Lung t½ (terminal half-life in lung) (converted)), the half-life – broadly, how long it takes for the measured level to halve – was 53 h. Also, the Kp at 24 h in series [2] (other: intratracheal (i.t.), rat, i.t., ratio of lung concentration 24 h after dose to blood Cmax after same dose, read-out: Lung/blood split) is 460. In addition, the “Percentage of dose remaining in lung at 24 h” value in series [2] (rat, single i.t. dose (17 and 20 μmol/kg for compounds 2 and 3 as printed in Fig. 5), 24 h) came out at 28%. In addition, the bioavailability (commonly dose-corrected exposure relative to a reference, in per cent) in series [2] (whole blood, 6 umol/kg, rat, oral, mean of n = 3, read-out: Rat oral F (bioavailability)) amounted to 0.3%.
